According to US6242494A, “Substituted β-amino acid inhibitors of methionine aminopeptidase-2” (Abbott Laboratories, priority 1999, dated 2001):
pIC50: −log10 of the molar value. Counter-ions that a name gives are not always drawn.

Each compound was assayed against T1, methionine aminopeptidase-2 (MetAP2) (Homo sapiens, UniProt P50579) (assay: Inhibition of MetAP2 enzyme activity (96-well, Met-Ala-Ser substrate, L-amino acid oxidase/peroxidase/ortho-dianisidine, 450 nm)). Conditions: IC50, recombinant MetAP2 4 μg/mL, pH 7.4, Met-Ala-Ser substrate, 20 minutes.
T1 construct: made in house; host or cells: insect cells, baculovirus system (secreted, purified from culture supernatant)
Format: biochemical

T1 sequence (P50579 whole entry): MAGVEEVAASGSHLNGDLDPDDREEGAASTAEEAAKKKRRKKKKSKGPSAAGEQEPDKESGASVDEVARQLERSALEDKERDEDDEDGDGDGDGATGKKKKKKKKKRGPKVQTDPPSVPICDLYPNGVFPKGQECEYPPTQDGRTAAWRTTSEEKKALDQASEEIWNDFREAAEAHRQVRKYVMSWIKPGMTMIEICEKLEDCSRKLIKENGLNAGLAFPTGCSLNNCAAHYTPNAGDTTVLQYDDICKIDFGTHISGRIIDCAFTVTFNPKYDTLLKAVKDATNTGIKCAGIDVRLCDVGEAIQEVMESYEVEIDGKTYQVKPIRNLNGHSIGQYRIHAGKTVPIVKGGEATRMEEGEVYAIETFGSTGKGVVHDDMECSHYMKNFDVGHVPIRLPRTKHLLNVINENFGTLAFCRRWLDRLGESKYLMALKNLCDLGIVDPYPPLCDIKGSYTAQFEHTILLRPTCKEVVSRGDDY

| SMILES | pIC50 |
| --- | --- |
| CCOC(=O)CCNC(=O)C(O)[C@H](N)CC1CCCCC1 (stereo partly drawn) [Example 24, (2RS,3R)-N-(2-(carboethoxy)ethyl)-3-amino-2-hydroxy-4-cyclohexyl-butanamidehydrochloride] | 6.00 |
| CCOC(=O)[C@H](C)NC(=O)C(O)[C@H](N)Cc1ccccc1 (stereo partly drawn) [Example 26, (2RS,3R,1'S)-N-((1-ethoxycarbonyl)ethyl)-3-amino-2-hydroxy-4-phenyl-butanamide hydrochloride] | 5.33 |
| COc1ccc(CCNC(=O)C(O)[C@H](N)CCSC)cc1 (stereo partly drawn) [Example 27, (2RS,3R)-3-amino-2-hydroxy-N-(4-methoxyphenethyl)-5-(methylthio)pentanamidehydrochloride] | 5.77 |
| N[C@H](CC1CCCCC1)C(O)C(=O)NCCCCc1ccccc1 (some centres unmarked) [Example 30, hydrochloride] | 5.96 |
| CSCC[C@@H](N)C(O)C(=O)N(C)CCc1ccccc1 (stereo partly drawn) [Example 33, (2RS,3R)-3-amino-2-hydroxy-N-methyl-5-(methylthio)-N-phenethylpentanaamide hydrochloride] | 5.60 |
| CCSCC[C@@H](N)C(O)C(=O)N[C@@H](C)C(=O)O (some centres unmarked) [Example 34, hydrochloride] | 5.51 |
| CCOC(=O)C(C)(C)NC(=O)C(O)[C@H](N)CCSCC (some centres unmarked) [Example 35, hydrochloride] | 6.96 |
| CCOC(=O)[C@H](CO)NC(=O)C(O)[C@H](N)CCSCC (stereo partly drawn) [Example 36, (2RS,3R)-N-((1-(2-hydroxy)-1-ethoxycarboxyethyl) 3-amino-2-hydroxy-4-ethylthio)pentanamide hydrochloride] | 6.85 |
| CCOC(=O)CN(C)C(=O)C(O)[C@H](N)CCSCC (some centres unmarked) [Example 39, hydrochloride] | 5.29 |
| CCSCC[C@@H](NC(=O)CO)C(O)C(=O)NCCCCc1ccccc1 (some centres unmarked) [Example 40, hydrochloride] | 4.09 |
| CCSCC[C@@H](NCC(=O)OC)C(O)C(=O)NCCCCc1ccccc1 (stereo partly drawn) [Example 44, (2RS,3R)-N-((Phenylbutyryl)-3-methoxycarbonylmethylamino-2-hydroxy-4-ethylthio)pentanamide hydrochloride] | 4.89 |
| CCOC(=O)[C@H](CO)NC(=O)C(O)[C@H](N)CC1CCCCC1 (stereo partly drawn) [Example 46, (2RS,3R,1'S)-N-((2-hydroxy-1-ethoxycarbonylethyl)-3-amino-2-hydroxy-4-cyclohexyl)butanamide hydrochloride] | 5.96 |
| CC(=O)OC[C@H](C)NC(=O)C(O)[C@H](N)CC1CCCCC1 (some centres unmarked) [Example 47] | 5.82 |
| CCC(=O)OC[C@H](C)NC(=O)C(O)[C@H](N)CC1CCCCC1 (stereo partly drawn) [Example 48, (2RS,3R,2'S)-N-((2-propionyloxypropyl)-3-amino-b2-hydroxy-$-cyclohexyl)butanamide hydrochloride] | 5.82 |
| C[C@@H](COC(=O)c1ccccc1)NC(=O)C(O)[C@H](N)CC1CCCCC1 (stereo partly drawn) [Example 49, (2RS, 3R,2'S)-N-((2-benzoyloxypropyl)-3-amino-2-hydroxy-4-cyclohexyl)butanamide hydrochloride] | 5.66 |
| C[C@H](COC(=O)c1ccccc1)NC(=O)C(O)[C@H](N)CC1CCCCC1 (some centres unmarked) [Example 50, hydrochloride] | 5.43 |

| SMILES | pIC50 |
| --- | --- |
| CCC(=O)OC[C@@H](C)NC(=O)C(O)[C@H](N)CC1CCCCC1 (some centres unmarked) [Example 51, hydrochloride] | 5.30 |
| CC(=O)OC[C@@H](C)NC(=O)C(O)[C@H](N)CC1CCCCC1 (stereo partly drawn) [Example 52, (2RS,3R,2'R)-N-((2-acetoxypropyl)-3-amino-2-hydroxy-4-cyclohexyl)butanamidehydrochloride] | 5.21 |
| C[C@H](NC(=O)C(O)[C@H](N)CC1CCCCC1)C(=O)OCc1ccccc1 (stereo partly drawn) [Example 53, (2RS,3R,1'S)-N-((1-benzyloxycarbonylethyl)-3-amino-2hydroxy-$-cyclohexyl)butanamide hydrochloride] | 5.74 |
| CCOC(=O)c1csc([C@H](C)NC(=O)C(O)[C@H](N)CC2CCCCC2)n1 (stereo partly drawn) [Example 54, (2RS,3R,1'-S)-N-(4-ethoxycarbonyl-2-(1'-aminoethyl)thizole)-3-amino-2-hydroxy-4-cyclohexyl)butanamide hydrochloride] | 5.59 |
| CN(C)c1cccc2c(S(=O)(=O)NCCCCCNC(=O)C(O)[C@H](N)CC3CCCCC3)cccc12 (stereo partly drawn) [Example 55, (2RS,3R) N-(monodansylcadaverenyl-3-amino-2-hydroxy-4-cyclohexyl)butanamidedihydrochloride] | 5.57 |
| Cc1ncc([N+](=O)[O-])n1CCNC(=O)C(O)[C@H](N)CC1CCCCC1 (stereo partly drawn) [Example 56, (2RS,3R) N-(2-methyl-5-nitroimidazole-ethyl) 3-amino-2-hydroxy-4-cyclohexyl)butanamide dihydrochloride] | 4.92 |
| N[C@H](CC1CCCCC1)C(O)C(=O)NCCNc1ccc([N+](=O)[O-])cn1 (stereo partly drawn) [Example 57, (2RS,3R) N-(5-nitropyridyl-2-aminoethyl) 3-amino-2-hydroxy-4-cyclohexyl)butanamide dihydrochloride] | 5.51 |
| COc1ccc2[nH]cc(CCNC(=O)C(O)[C@H](N)CC3CCCCC3)c2c1 (some centres unmarked) [Example 58] | 5.46 |
| COc1cc(CCNC(=O)C(O)[C@H](N)CC2CCCCC2)ccc1O (some centres unmarked) [Example 59] | 5.82 |
| N[C@H](CC1CCCCC1)C(O)C(=O)NCc1nc2ccccc2[nH]1 (stereo partly drawn) [Example 60, (2RS,3R) N-(2-aminomethylbenzimidazolyl) 3-amino-2-hydroxy-4-cyclohexyl)butanamide hydrochloride] | 4.74 |
| Cc1ncc([N+](=O)[O-])n1CCNC(=O)[C@H](C)NC(=O)C(O)[C@H](N)CC1CCCCC1 (stereo partly drawn) [Example 61, ((2RS,3R)-3-amino-2-hydroxy-4-cyclohexyl)butanoyl-L-alanyl-(2-methyl-5-nitroimidazolyl-ethyl)amide hydrochloride] | 4.89 |
| C[C@H](NC(=O)C(O)[C@H](N)CC1CCCCC1)C(=O)NCCNc1ccc([N+](=O)[O-])cn1 (stereo partly drawn) [Example 62, ((2RS,3R)-3-amino-2-hydroxy-4-cyclohexyl)butanoyl-L-alanyl-(5-nitropyridylaminoethyl)amide dihydrochloride] | 5.12 |
| CCOC(=O)C1CCN(C(=O)[C@H](C)NC(=O)C(O)[C@H](N)CC2CCCCC2)CC1 (stereo partly drawn) [Example 63, ((2RS,3R)-3-amino-2-hydroxy-4-cyclohexyl)butanoyl-L-alanyl-(ethylisonipecotate)amide hydrochloride] | 4.70 |
| C[C@H](NC(=O)C(O)[C@H](N)CC1CCCCC1)C(=O)NCCCN1CCCC1=O (stereo partly drawn) [Example 64, ((b 2RS,3R)-3-amino-2-hydroxy-4-cyclohexyl)butanoyl-L-alanyl-(2-pyrrolidinopropyl)amide hydrochloride] | 4.72 |
| COc1cc(CCNC(=O)[C@H](C)NC(=O)C(O)[C@H](N)CC2CCCCC2)ccc1O (stereo partly drawn) [Example 66, ((2RS,3R)-3-amino-2-hydroxy-4-cyclohexyl)butanoyl-L-alanyl-(3-O-methoxydopamine)amide hydrochloride] | 5.00 |

Same assay, conditions: recombinant MetAP2 4 μg/mL, pH 7.4, Met-Ala-Ser substrate, 20 minutes

| SMILES | pIC50 |
| --- | --- |
| COc1ccc2[nH]cc(CCNC(=O)[C@H](C)NC(=O)C(O)[C@H](N)CC3CCCCC3)c2c1 (stereo partly drawn) [Example 65, ((2RS,3R)-3-amiono-2-hydroxy-4-cyclohexyl)butanoyl-L-alanyl-(5-methoxytryptamine)amide hydrochloride] | 5.25 |
